Patent US20260217701A1, “SELECTIVE BET INHIBITORS AND USES THEREOF” (Tay Therapeutics Limited, priority 2022, published 2026)
Several values for one entry are separate records, joined by “and”; a condition that tells them apart may be missing. Equal entries are not always repeated.

Tested on: imiquimod-induced psoriasis
Assay: Imiquimod-induced psoriasis model
Type: in vivo, mice
Set-up: Spleen Weight / Spleen Weight Ratio: unit not given here
Conditions: for Mean scores of the presence of erythema on the skin of animals at the area of induction of psoriasis / Mean scores of the presence of induration on the skin of animals at the area of induction of psoriasis / Mean scores of the presence of peeling on the skin of animals at the area of induction of psoriasis: mean ± SEM
In short: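 Psoriasis-like dermatitis induced in mice by daily dorsal imiquimod cream (Days 1–14); dosing with Compound A (5% DMSO/40% PEG-400/55% saline vehicle) began Day 8. Read-outs: summed 0–4 scores for erythema, induration and peeling daily to Day 15, plus terminal spleen ratio, behaviour and serum cytokines.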

[1] = IMI + 1 mg/kg, D8 (before start of treatment)
[2] = IMI + 3 mg/kg, D8 (before start of treatment)

COCCn1cc(-c2ccccc2)c(-c2cn(C)c(=O)c3[nH]c(-c4cnn(C(F)(F)F)c4)cc23)cc1=O [Compound B, 4-(1-(2-methoxyethyl)-2-oxo-5-phenyl-1,2-dihydropyridin-4-yl)-6-methyl-2-(1-(trifluoromethyl)-1H-pyrazol-4-yl)-1,6-dihydro-7H-pyrrolo[2,3-c]pyridin-7-one]
Spleen Weight Ratio (IMI-psoriasis model, mice, 10 mg/kg, individual animals): 1026.10 and 1000.89 and 999.24 and 691.05 and 654.43 and 926.75 and 782.83 and 888.53
Spleen Weight Ratio (day 15, 1, 3, 10 mg/kg): dose-dependent decrease
efficacy on the treatment of psoriasis (highest tested dose of 10 mg/kg): very good efficacy
Mean scores of the presence of erythema on the skin of animals at the area of induction of psoriasis [1]: 2.1 ± 0.1
Mean scores of the presence of induration on the skin of animals at the area of induction of psoriasis [1]: 2.5 ± 0.2
Mean scores of the presence of peeling on the skin of animals at the area of induction of psoriasis [1]: 2.1 ± 0.1
Mean scores of the presence of erythema on the skin of animals at the area of induction of psoriasis (IMI + 1 mg/kg, D9): 1.8 ± 0.2
Mean scores of the presence of induration on the skin of animals at the area of induction of psoriasis (IMI + 1 mg/kg, D9): 2.5 ± 0.2
Mean scores of the presence of peeling on the skin of animals at the area of induction of psoriasis (IMI + 1 mg/kg, D9): 2.5 ± 0.3
Mean scores of the presence of erythema on the skin of animals at the area of induction of psoriasis (IMI + 1 mg/kg, D10): 1.8 ± 0.2
Mean scores of the presence of induration on the skin of animals at the area of induction of psoriasis (IMI + 1 mg/kg, D10): 2.3 ± 0.2
Mean scores of the presence of peeling on the skin of animals at the area of induction of psoriasis (IMI + 1 mg/kg, D10): 2.0 ± 0.2
Mean scores of the presence of erythema on the skin of animals at the area of induction of psoriasis (IMI + 1 mg/kg, D11): 2.3 ± 0.2
Mean scores of the presence of induration on the skin of animals at the area of induction of psoriasis (IMI + 1 mg/kg, D11): 2.3 ± 0.3
Mean scores of the presence of peeling on the skin of animals at the area of induction of psoriasis (IMI + 1 mg/kg, D11): 2.0 ± 0.1
Mean scores of the presence of erythema on the skin of animals at the area of induction of psoriasis (IMI + 1 mg/kg, D12): 1.8 ± 0.2
Mean scores of the presence of induration on the skin of animals at the area of induction of psoriasis (IMI + 1 mg/kg, D12): 2.0 ± 0.0
Mean scores of the presence of peeling on the skin of animals at the area of induction of psoriasis (IMI + 1 mg/kg, D12): 1.9 ± 0.1
Mean scores of the presence of erythema on the skin of animals at the area of induction of psoriasis (IMI + 1 mg/kg, D13): 1.5 ± 0.3
Mean scores of the presence of induration on the skin of animals at the area of induction of psoriasis (IMI + 1 mg/kg, D13): 2.0 ± 0.0
Mean scores of the presence of peeling on the skin of animals at the area of induction of psoriasis (IMI + 1 mg/kg, D13): 2.0 ± 0.3
Mean scores of the presence of erythema on the skin of animals at the area of induction of psoriasis (IMI + 1 mg/kg, D14): 1.8 ± 0.3
Mean scores of the presence of induration on the skin of animals at the area of induction of psoriasis (IMI + 1 mg/kg, D14): 2.0 ± 0.0
Mean scores of the presence of peeling on the skin of animals at the area of induction of psoriasis (IMI + 1 mg/kg, D14): 1.9 ± 0.2
Mean scores of the presence of erythema on the skin of animals at the area of induction of psoriasis (IMI + 1 mg/kg, D15): 1.5 ± 0.2
Mean scores of the presence of induration on the skin of animals at the area of induction of psoriasis (IMI + 1 mg/kg, D15): 1.9 ± 0.1
Mean scores of the presence of peeling on the skin of animals at the area of induction of psoriasis (IMI + 1 mg/kg, D15): 1.8 ± 0.3
Mean scores of the presence of erythema on the skin of animals at the area of induction of psoriasis [2]: 2.4 ± 0.2
Mean scores of the presence of induration on the skin of animals at the area of induction of psoriasis [2]: 2.6 ± 0.2
Mean scores of the presence of peeling on the skin of animals at the area of induction of psoriasis [2]: 2.6 ± 0.3
Mean scores of the presence of erythema on the skin of animals at the area of induction of psoriasis (IMI + 3 mg/kg, D9): 1.9 ± 0.3
Mean scores of the presence of induration on the skin of animals at the area of induction of psoriasis (IMI + 3 mg/kg, D9): 2.0 ± 0.0
Mean scores of the presence of peeling on the skin of animals at the area of induction of psoriasis (IMI + 3 mg/kg, D9): 2.1 ± 0.0
Mean scores of the presence of erythema on the skin of animals at the area of induction of psoriasis (IMI + 3 mg/kg, D10): 1.6 ± 0.2
Mean scores of the presence of induration on the skin of animals at the area of induction of psoriasis (IMI + 3 mg/kg, D10): 2.1 ± 0.1
Mean scores of the presence of peeling on the skin of animals at the area of induction of psoriasis (IMI + 3 mg/kg, D10): 2.0 ± 0.2
Mean scores of the presence of erythema on the skin of animals at the area of induction of psoriasis (IMI + 3 mg/kg, D11): 1.9 ± 0.2
Mean scores of the presence of induration on the skin of animals at the area of induction of psoriasis (IMI + 3 mg/kg, D11): 1.7 ± 0.2
Mean scores of the presence of peeling on the skin of animals at the area of induction of psoriasis (IMI + 3 mg/kg, D11): 1.9 ± 0.1
Mean scores of the presence of erythema on the skin of animals at the area of induction of psoriasis (IMI + 3 mg/kg, D12): 1.9 ± 0.1
Mean scores of the presence of induration on the skin of animals at the area of induction of psoriasis (IMI + 3 mg/kg, D12): 1.9 ± 0.1
Mean scores of the presence of peeling on the skin of animals at the area of induction of psoriasis (IMI + 3 mg/kg, D12): 1.6 ± 0.2
Mean scores of the presence of erythema on the skin of animals at the area of induction of psoriasis (IMI + 3 mg/kg, D13): 1.5 ± 0.2
Mean scores of the presence of induration on the skin of animals at the area of induction of psoriasis (IMI + 3 mg/kg, D13): 1.9 ± 0.1
Mean scores of the presence of peeling on the skin of animals at the area of induction of psoriasis (IMI + 3 mg/kg, D13): 1.6 ± 0.2
Mean scores of the presence of erythema on the skin of animals at the area of induction of psoriasis (IMI + 3 mg/kg, D14): 1.3 ± 0.2
Mean scores of the presence of induration on the skin of animals at the area of induction of psoriasis (IMI + 3 mg/kg, D14): 1.9 ± 0.1
Mean scores of the presence of peeling on the skin of animals at the area of induction of psoriasis (IMI + 3 mg/kg, D14): 1.5 ± 0.1
Mean scores of the presence of erythema on the skin of animals at the area of induction of psoriasis (IMI + 3 mg/kg, D15): 0.9 ± 0.2
Mean scores of the presence of induration on the skin of animals at the area of induction of psoriasis (IMI + 3 mg/kg, D15): 1.4 ± 0.2
